In patent publication US20040121946A9, “Inducing cellular immune responses to her2/neu using peptide and nucleic acid compositions” (priority 2002, published 2004):
pIC50: −log10 of the molar value.

Legend:
DRB1*1501 (DR2w2β1) = DRB1*1501 (DR2w2β1) (Homo sapiens, UniProt P01903+P01911); assay: HLA class II peptide binding assay, purified HLA; conditions: for DR2wB1 binding data: Table XIX, DR supermotif peptides, unit not given
DRB1*0802 (DR8w2) = DRB1*0802 (DR8w2) (Homo sapiens, UniProt P01903+P01911, A100R/A103L/A169T/F76Y/H45Y/I96F/K41T/L162R/M171V/P40S/Q125H/Q178H/Q39Y/Q99D/R218S/R42G/S66Y/V115G/W38E); assay: HLA class II peptide binding assay, purified HLA; conditions: Table XIX, DR supermotif peptides; unit not given
DRB1*1101 (DR5w11) = DRB1*1101 (DR5w11) (Homo sapiens, UniProt P01903+P01911, A100R/A169T/A87E/I96F/K41T/L162R/M171V/P40S/Q125H/Q178H/Q39Y/Q99D/R42S/S66Y/T262R/V115G/W38E); assay: HLA class II peptide binding assay, purified HLA; conditions: Table XIX, DR supermotif peptides; unit not given
DRB5*0101 (DR2w2β2) = DRB5*0101 (DR2w2β2) (Homo sapiens, UniProt P01903+Q30154); assay: HLA class II peptide binding assay, purified HLA; conditions: Table XIX, DR supermotif peptides; unit not given
[1] = test system: HLA-DR molecules (DR1, DR4w4, DR7, DRB5*0101, DRB1*1501, DRB1*1101, DRB1*0802, DRB1*1302); assay: DR supertype cross-reactive binding; design: species or system human; conditions: for DR147 Binding / DR147 Cross-binding: number of DR1, DR4w4, DR7 bound; for DR147 Binding: Table XXIX; for DR147 Cross-binding: Table XXVIII; for Broad Binding (5/8): number of the 8 DR alleles bound
DRB1*0701 (DR7) = DRB1*0701 (DR7) (Homo sapiens, UniProt P01903+P01911, A100R/A102G/A103Q/D57E/D86V/E43K/F76Y/K127E/L162R/M171V/P40G/Q125H/Q99D/R33Q/R42Y/R54Q/S133A/S66F/T210M/V115G/Y107V/Y59L/Y89S); assay: HLA class II peptide binding assay, purified HLA; conditions: Table XIX, DR supermotif peptides; unit not given
DRB1*0101 (DR1) = DRB1*0101 (DR1) (Homo sapiens, UniProt P01903+P01911, A100R/D57E/F55L/F60I/F76Y/I96L/L162R/M171V/P40L/Q125E/R42F/V115G/Y59C); assay: HLA class II peptide binding assay, purified HLA; conditions: Table XIX, DR supermotif peptides; unit not given
DRB1*1302 (DR6w19) = DRB1*1302 (DR6w19) (Homo sapiens, UniProt P01903+P01911, A100E/A169T/K41T/L162R/M171V/P40S/Q125H/Q178H/Q39Y/Q99D/R42S/S66N/T262R/V115G/W38E/Y61H); assay: HLA class II peptide binding assay, purified HLA; conditions: Table XIX, DR supermotif peptides; unit not given
DRB1*0401 (DR4w4) = DRB1*0401 (DR4w4) (Homo sapiens, UniProt P01903+P01911, A100K/A169T/F76Y/I96L/K127E/L162R/M171V/N62H/P40V/Q125Y/R42H/S133A/S149N/S66Y/V115G/V209L/W38E); assay: HLA class II peptide binding assay, purified HLA; conditions: Table XIX, DR supermotif peptides; unit not given
DRB1*0301 (DR3) = DRB1*0301 (DR3) (Homo sapiens, UniProt P01903+P01911, A100K/A102G/A103R/A169T/F55Y/I96L/K41T/L162R/M171V/P40S/Q125H/Q178H/Q39Y/R42S/S66N/T106N/T262R/W38E/Y61H); assay: HLA class II peptide binding assay, purified HLA; conditions: Table XIX, DR supermotif peptides; unit not given

## CC[C@H](C)[C@H](NC(=O)[C@H](CCCCN)NC(=O)[C@H](CCCCN)NC(=O)[C@@H](N)CS)C(=O)N[C@@H](Cc1ccccc1)C(=O)NCC(=O)N[C@@H](CO)C(=O)N[C@@H](CC(C)C)C(=O)N[C@@H](C)C(=O)N[C@@H](Cc1ccccc1)C(=O)N[C@@H](CC(C)C)C(=O)N1CCC[C@H]1C(=O)N[C@@H](CCC(=O)O)C(=O)N[C@@H](CO)C(=O)N[C@@H](Cc1ccccc1)C(=O)O
DRB1*1501 (DR2w2β1)
  DR2wB1 binding data: 0.0070
DRB1*1501 (DR2w2β1); Table XXIX, read-out: DR2w2β1 nM
  pIC50: 5.89
DRB1*0802 (DR8w2)
  DR8w2 binding data: −0.0004
DRB1*1101 (DR5w11)
  DR5w11 binding data: −0.0005
DRB5*0101 (DR2w2β2)
  DR2w2B2 binding data: 0.0016
[1]
  DR147 Binding: 2
  DR147 Cross-binding: 2
  Broad Binding (5/8): 2
DRB1*0701 (DR7)
  DR7 binding data: 0.0270
DRB1*0101 (DR1)
  DR1 binding data: 0.2400
DRB1*1302 (DR6w19)
  DR6w19 binding data: 0.0034
DRB1*0401 (DR4w4)
  DR4w4 binding data: −0.0025
DRB1*0301 (DR3)
  DR3 binding data: 0.0010

## CC(C)C[C@H](NC(=O)[C@H](CO)NC(=O)[C@H](C)NC(=O)[C@H](CC(N)=O)NC(=O)[C@@H](NC(=O)[C@@H]1CCCN1C(=O)[C@H](CC(C)C)NC(=O)[C@H](Cc1ccc(O)cc1)NC(=O)[C@@H](NC(=O)[C@@H](N)CC(C)C)[C@@H](C)O)[C@@H](C)O)C(=O)N[C@@H](CO)C(=O)N[C@@H](Cc1ccccc1)C(=O)N[C@@H](CC(C)C)C(=O)N[C@@H](CCC(N)=O)C(=O)N[C@@H](CC(=O)O)C(=O)O
DRB1*1501 (DR2w2β1)
  DR2wB1 binding data: 0.0100
DRB1*0802 (DR8w2)
  DR8w2 binding data: 0.0054
DRB1*1101 (DR5w11)
  DR5w11 binding data: 0.0041
DRB5*0101 (DR2w2β2)
  DR2w2B2 binding data: 0.0560
[1]
  DR147 Binding: 3
  DR147 Cross-binding: 3
  Broad Binding (5/8): 6
DRB1*0701 (DR7)
  DR7 binding data: 0.3200
DRB1*0101 (DR1)
  DR1 binding data: 0.4900
DRB1*1302 (DR6w19)
  DR6w19 binding data: 0.0280
DRB1*0401 (DR4w4)
  DR4w4 binding data: 0.3300
DRB1*0301 (DR3)
  DR3 binding data: 0.0150

## CC(C)C[C@H](NC(=O)[C@H](CO)NC(=O)[C@H](C)NC(=O)[C@H](CC(N)=O)NC(=O)[C@@H](NC(=O)[C@@H]1CCCN1C(=O)[C@H](CC(C)C)NC(=O)[C@H](Cc1ccc(O)cc1)NC(=O)[C@@H](NC(=O)[C@H](CC(C)C)NC(=O)[C@H](CCC(=O)O)NC(=O)[C@H](CC(C)C)NC(=O)[C@@H](N)CC(N)=O)[C@@H](C)O)[C@@H](C)O)C(=O)N[C@@H](CO)C(=O)N[C@@H](Cc1ccccc1)C(=O)O
DRB1*1501 (DR2w2β1)
  DR2wB1 binding data: 0.0280
DRB1*0802 (DR8w2)
  DR8w2 binding data: 0.0220
DRB1*1101 (DR5w11)
  DR5w11 binding data: 0.0050
DRB5*0101 (DR2w2β2)
  DR2w2B2 binding data: 0.0090
[1]
  DR147 Binding: 3
  DR147 Cross-binding: 3
  Broad Binding (5/8): 4
DRB1*0701 (DR7)
  DR7 binding data: 0.0680
DRB1*0101 (DR1)
  DR1 binding data: 0.4700
DRB1*1302 (DR6w19)
  DR6w19 binding data: 0.0017
DRB1*0401 (DR4w4)
  DR4w4 binding data: 0.3800
DRB1*0301 (DR3)
  DR3 binding data: 0.0010

## CC[C@H](C)[C@H](NC(=O)[C@H](CCSC)NC(=O)[C@H](Cc1ccc(O)cc1)NC(=O)[C@@H](NC(=O)[C@H](CC(=O)O)NC(=O)[C@@H](NC(=O)[C@@H](NC(=O)[C@H](CS)NC(=O)[C@@H](NC(=O)[C@@H]1CCCN1C(=O)[C@@H]1CCCN1C(=O)[C@@H](N)CCC(N)=O)[C@@H](C)CC)[C@@H](C)O)[C@@H](C)CC)C(C)C)C(=O)N[C@@H](CCSC)C(=O)N[C@H](C(=O)N[C@@H](CCCCN)C(=O)O)C(C)C
DRB1*1501 (DR2w2β1)
  DR2wB1 binding data: 0.0540
DRB1*0802 (DR8w2)
  DR8w2 binding data: 0.0051
DRB1*1101 (DR5w11)
  DR5w11 binding data: 0.0046
DRB5*0101 (DR2w2β2)
  DR2w2B2 binding data: 0.0027
[1]
  DR147 Binding: 2
  DR147 Cross-binding: 2
  Broad Binding (5/8): 3
DRB1*0701 (DR7)
  DR7 binding data: 0.1000
DRB1*0101 (DR1)
  DR1 binding data: 0.0670
DRB1*1302 (DR6w19)
  DR6w19 binding data: 0.0013
DRB1*0401 (DR4w4)
  DR4w4 binding data: 0.0060
DRB1*0301 (DR3)
  DR3 binding data: 0.0976
